The results in this text go back to patent US11746103B2, “ALK-5 inhibitors and uses thereof” (Sumitomo Pharma Oncology, Inc., priority 2020, dated 2023).

By inhibition is commonly meant the change of the read-out against control, counted positive when it falls.

Experiment [1] concerns the target ALK-5 (Homo sapiens (Human), UniProt P36897). The experiment in a line: LanthaScreen Eu Kinase Binding Assay, ALK-5. The note with it: for IC50: read-out: Kinase Inhibition: ALK5 IC50. Put shortly:
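TR-FRET binding assay: compound displaces an ATP-site-directed Alexa Fluor tracer from kinase detected by Eu-labelled anti-tag antibody, lowering FRET. 10-point, 3-fold serial dilutions, 60 min incubation at room temperature, read without development step. Dose-response curves fitted.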
In general terms: Time-resolved FRET reads energy transfer from a long-lived donor to a nearby acceptor.

For experiment [2], the system named is phospho-SMAD2 (Ser 465/467) in A549 xenograft. The experiment can be described thus: A549 xenograft study, tumor phospho SMAD2. The following applies: for phospho SMAD2 levels in tumor (normalized to GAPDH): 10, 50, 75, 100 mg/Kg; for inhibition at 10 mg/kg / inhibition at 50 mg/kg / inhibition at 75 mg/kg / inhibition at 100 mg/kg: Mus musculus, A549, oral gavage, 3 hours after administration, read-out: Percent of p-SMAD2 inhibition compared to vehicle control. It counts as in vivo, mouse. The source says: To test compounds for in vivo on-target activity (ALK5/TGF-βR1 inhibition), a study was completed using an A549 murine xenograft model. This model was utilized since an ALK5 inhibitor is expected to reduce the amount of the key TGF-β signaling molecule phosphoSMAD2 in the A549 xenograft cells. The TGF-β mediated phosphorylation in A549 cells takes place at amino acid residue four hundred and sixty-five and four hundred and sixty-seven (both are serine residues).
Eight-week old, female athymic nude mice (Charles River) were injected with approximately four million A549 cells (ATCC, CCL-185). The cells employed were harvested and resuspended in plain RPMI media (no phenol red added) and matrigel (Fisher Scientific) at a one to one ratio. Injection comprised a two-hundred microliter sample injected into the right hind flank of each mouse. Resulting tumors were measured every three days by caliper and as tumors reached an average of one hundred and thirty millimeters cubed, mice were randomized in groups of three.
All compounds were resuspended in 1-Methyl-2-pyrrolidinone (10%) plus 20% Solutol in water (90%). Galunisertib was included as a positive control and given at seventy-five milligram per kilogram to three mice. The drug suspensions were sonicated for fifteen minutes to generate a fine particle suspension before being administered to a subject. Mice were dosed (per oral gavage) at dose levels of one hundred mg/Kg, seventy-five mg/Kg, fifty mg/Kg and ten mg/Kg with three mice in each group. A vehicle control group with three mice was used to establish the baseline level of phospho SMAD2 in the tumor xenograft. Three hours after drug administration, tumors were harvested and stored at negative eighty degrees Celsius until further processing. The phospho SMAD2 levels were determined using the BioPlex Pro anti phospho-SMAD2 (Ser 465/467) beads from Biorad and this signal was normalized using GAPDH levels from each sample (Milliplex MAP GAPDH beads, Sigma/Millipore). Tumors were processed according to kit instructions and beads analyzed using the MagPix instrument by Luminex.

For experiment [3], the system named is TGF-beta induced SMAD signaling. The experiment in a line: RDSR (RD SMAD reporter) Cellular Reporter Assay. The class given is cell-based. The note with it: Homo sapiens; 200 pg/ml rhTGF-beta1, 24 h; read-out: RD-SMAD reporter activity. Put shortly:
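Human rhabdomyosarcoma RD cells stably carrying an SBE-driven luc2P luciferase reporter. Inhibition of SMAD signaling was quantified from ONE-Glo luminescence.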
Background: Reporter assays use an easily measured gene product as a stand-in for the process of interest.

Chain of ALK-5 (P36897 34-503): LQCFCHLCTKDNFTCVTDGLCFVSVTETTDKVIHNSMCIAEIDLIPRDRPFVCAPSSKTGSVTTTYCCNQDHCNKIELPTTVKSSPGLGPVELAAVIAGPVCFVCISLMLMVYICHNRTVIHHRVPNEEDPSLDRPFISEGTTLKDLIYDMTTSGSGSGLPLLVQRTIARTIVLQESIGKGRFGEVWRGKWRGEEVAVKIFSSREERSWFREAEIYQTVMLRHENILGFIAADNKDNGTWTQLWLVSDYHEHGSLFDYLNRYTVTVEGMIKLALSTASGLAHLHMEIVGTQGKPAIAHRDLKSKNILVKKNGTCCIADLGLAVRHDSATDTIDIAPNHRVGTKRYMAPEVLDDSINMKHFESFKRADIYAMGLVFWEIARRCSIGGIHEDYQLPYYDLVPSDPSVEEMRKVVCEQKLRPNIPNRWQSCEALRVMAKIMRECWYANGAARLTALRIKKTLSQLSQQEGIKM

With `Cc1cccc2c(Nc3ccnc(Nc4ccc(N5CCOCC5)cc4)n3)cnnc12` [EX-10, N4-(8-methylcinnolin-4-yl)-N2-(4-morpholino-phenyl)-pyrimidine-2,4-diamine], in experiment [1], the “Kinase Selectivity: ALK2 IC50/ ALK5 IC50” value was “(++) (10<ALK2/ALK5<100=[++])” and the IC50 is under 10 nM. Further, in experiment [2], the “phospho SMAD2 levels in tumor (normalized to GAPDH)” value is recorded as “reduced the phopho SMAD2 levels (p-SMAD2) in a dose dependent fashion”, the inhibition at 10 mg/kg was determined as 33.5%, the inhibition at 50 mg/kg was 78.3% and the inhibition at 100 mg/kg is 84.8%. In addition, the inhibition at 75 mg/kg in experiment [2] (75 mg/Kg) was 74.8%. Further, the IC50 in experiment [3] is under 100 nM.

Take `Cc1cccc2c(Nc3ccnc(Nc4cccc(N5CCOCC5)c4)n3)cnnc12` [EX-11, N4-(8-methylcinnolin-4-yl)-N2-(3-morpholinophenyl)pyrimidine-2,4-diamine]: in experiment [1], the “Kinase Selectivity: ALK2 IC50/ ALK5 IC50” value was “(++) (10<ALK2/ALK5<100=[++])” and the IC50 is under 10 nM. Also, in experiment [2] (75 mg/Kg), the “observed level of p-SMAD2 as percent of vehicle-only group” value turned out to be 7.5% and the inhibition at 75 mg/kg is 92.5%. In experiment [2], the “phospho SMAD2 levels in tumor (normalized to GAPDH)” value is “reduced the phopho SMAD2 levels (p-SMAD2) in a dose dependent fashion”, the inhibition at 10 mg/kg came out at 32.6%, the inhibition at 50 mg/kg came to 87.6% and the inhibition at 100 mg/kg came out at 90.1%. Moreover, the IC50 in experiment [3] was under 100 nM.
